Reference: ChEMBL document CHEMBL4732270, “Cell Permeability of Isomeric Macrocycles: Predictions and NMR Studies” (ACS Med Chem Lett, 2021)

Test: Lipophilicity, log D of compound at pH 7.4 by UPLC-MS/MS analysis
Assay type: physicochemical
Settings: buffer
With `COC(=O)[C@@H]1CSCc2ccccc2C(=O)OC[C@H](NC(=O)[C@@H]2CCCN2C(C)=O)CN1` the logD was 0.7.
Work on `COC(=O)[C@H]1CSCc2ccccc2C(=O)OC[C@H](NC(=O)[C@@H]2CCCN2C(C)=O)CN1` yielded a logD of 0.65.
Work on `COC(=O)[C@@H]1CSCc2ccccc2C(=O)OC[C@@H](NC(=O)[C@@H]2CCCN2C(C)=O)CN1` yielded a logD of 0.43.
Compound `COC(=O)[C@H]1CSCc2ccccc2C(=O)OC[C@@H](NC(=O)[C@@H]2CCCN2C(C)=O)CN1` has a logD of 0.6.
